{"source": "patent US6835386B2", "about": "“Collar containing a novel gel formulation to control arthropod infestation of animals” (Pfizer Inc., priority 1998, dated 2004)", "assay": "Miscibility of insecticide in gel formulation", "format": "physicochemical", "source_text": "Thus, the improved gel formulation allows permeation of an effective amount of the active ingredient to occur in about 3 days, as compared to about 3 to 5 weeks for prior formulations. As a result of this shortened initial permeation period, the device is ready for use more quickly after manufacture, thereby reducing or eliminating the amount of time that such devices must be stored prior to use. Additional advantages of the device of the present invention include eliminating several of the problems associated with the use of a mineral oil-based gel, such as leaving an oily residue on the animal, the potential for triggering skin irritations, and inhibiting the process of sealing the reservoir. In addition, insecticides such as cypermethrin which are not miscible in mineral oil-based gels are miscible in the improved gel formulation of the present invention.", "data": [{"smiles": "CC1(C)C(C=C(Cl)Cl)C1C(=O)OC(C#N)c1cccc(Oc2ccccc2)c1", "note": "(centres unmarked) [cypermethrin]", "values": [{"measurement": "Miscibility", "setting": "in mineral oil-based gels", "value": "not miscible"}, {"measurement": "Miscibility", "setting": "in the improved gel formulation of the present invention", "value": "miscible"}]}]}
